In US7138361B2, “Herbicidal heterocycles” (E. I. du Pont de Nemours and Company, priority 2000, dated 2006):

Columns and labels:
Assay type in all cases: in vivo
[1] = tested on: blackgrass (Alopecurus myosuroides); experiment: Test B postemergence; conditions: 13 to 15 days
Method in brief: (§1)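 Visual injury scores, 0 = no effect to 100 = complete control, assigned against controls after 13 to 15 days in the greenhouse. Compounds formulated in non-phytotoxic solvent plus surfactant and applied to soil after planting (pre) or onto foliage of 1- to 4-leaf plants (post).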

[2] = tested on: giant foxtail (Setaria faberii); experiment: Test B postemergence; conditions: 13 to 15 days
Method in brief: as §1

[3] = tested on: corn (Zea mays); experiment: Test B postemergence; conditions: 13 to 15 days
Method in brief: as §1

[4] = tested on: wild oat (Avena fatua); experiment: Test B postemergence; conditions: 13 to 15 days
Method in brief: as §1

[5] = tested on: velvetleaf (Abutilon theophrasti); experiment: Test B postemergence; conditions: 13 to 15 days
Method in brief: as §1

[6] = tested on: crabgrass (Digitaria sanguinalis); experiment: Test B postemergence; conditions: 13 to 15 days
Method in brief: as §1

[7] = tested on: barnyardgrass (Echinochloa crus-galli); experiment: Test B postemergence; conditions: 13 to 15 days
Method in brief: as §1

[8] = tested on: Surinam grass (Brachiaria decumbens); experiment: Test B postemergence; conditions: 13 to 15 days
Method in brief: as §1

[9] = tested on: wheat (Triticum aestivum); experiment: Test B postemergence; conditions: 13 to 15 days
Method in brief: as §1

[10] = tested on: lambsquarters (Chenopodium album); experiment: Test B postemergence; conditions: 13 to 15 days
Method in brief: as §1

[11] = tested on: morning glory (Ipomoea hederacea); experiment: Test B postemergence; conditions: 13 to 15 days
Method in brief: as §1

[12] = tested on: pigweed (Amaranthus retroflexus); experiment: Test B postemergence; conditions: 13 to 15 days
Method in brief: as §1

[13] = tested on: cocklebur (Xanthium strumarium); experiment: Test B postemergence; conditions: 13 to 15 days
Method in brief: as §1

[14] = tested on: duck salad (Heteranthera limosa); experiment: Test B flooded paddy test; conditions: Rate 1000 g/ha, scale of 0 to 100 where 0 is no effect and 100 is complete control, visually evaluated after 13 to 15 days
Experimental: (§2) At the same time, plants selected from these crop and weed species and also blackgrass (Alopecurus myosuroides), wheat (Triticum aestivum) and wild oat (Avena fatua) were treated with postemergence applications of test chemicals formulated in the same manner. Plants ranged in height from 2 to 18 cm (1- to 4-leaf stage) for postemergence treatments. Plant species in the flooded paddy test consisted of rice (Oryza saliva), smallflower flatsedge (Cyperus difformis), duck salad (Heteranthera limosa) and barnyardgrass (Echinochloa crus-galli) grown to the 2-leaf stage for testing. Treated plants and controls were maintained in a greenhouse for 13 to 15 days, after which time all species were compared to controls and visually evaluated. Plant response ratings, summarized in Table B, are based on a scale of 0 to 100 where 0 is no effect and 100 is complete control. A dash (-) response means no test result.

[15] = tested on: barnyardgrass (Echinochloa crus-galli); experiment: Test B flooded paddy test; conditions: Rate 1000 g/ha, scale of 0 to 100 where 0 is no effect and 100 is complete control, visually evaluated after 13 to 15 days
Experimental: as §2

[16] = tested on: rice (Oryza saliva); experiment: Test B flooded paddy test; conditions: Rate 1000 g/ha, scale of 0 to 100 where 0 is no effect and 100 is complete control, visually evaluated after 13 to 15 days
Experimental: as §2

[17] = tested on: smallflower flatsedge (Cyperus difformis); experiment: Test B flooded paddy test; conditions: Rate 1000 g/ha, scale of 0 to 100 where 0 is no effect and 100 is complete control, visually evaluated after 13 to 15 days
Experimental: as §2

[18] = tested on: giant foxtail (Setaria faberii); experiment: Test B preemergence
Method in brief: as §1

[19] = tested on: corn (Zea mays); experiment: Test B preemergence
Method in brief: as §1

[20] = tested on: velvetleaf (Abutilon theophrasti); experiment: Test B preemergence
Method in brief: as §1

[21] = tested on: crabgrass (Digitaria sanguinalis); experiment: Test B preemergence
Method in brief: as §1

[22] = tested on: barnyardgrass (Echinochloa crus-galli); experiment: Test B preemergence
Method in brief: as §1

[23] = tested on: Surinam grass (Brachiaria decumbens); experiment: Test B preemergence
Method in brief: as §1

[24] = tested on: rice (Oryza saliva); experiment: Test B preemergence
Method in brief: as §1

[25] = tested on: lambsquarters (Chenopodium album); experiment: Test B preemergence
Method in brief: as §1

[26] = tested on: morning glory (Ipomoea hederacea); experiment: Test B preemergence
Method in brief: as §1

[27] = tested on: pigweed (Amaranthus retroflexus); experiment: Test B preemergence
Method in brief: as §1

[28] = tested on: cocklebur (Xanthium strumarium); experiment: Test B preemergence
Method in brief: as §1

[29] = Rate 125 g/ha, scale 0 (no effect) to 100 (complete control)
[30] = Rate 500 g/ha, scale 0 to 100, 0 is no effect, 100 is complete control
[31] = Preemergence, Rate 500 g/ha, scale 0 to 100, 0 no effect, 100 complete control
[32] = preemergence, Rate 125 g/ha, scale of 0 to 100 where 0 is no effect and 100 is complete control, 13 to 15 days
[33] = preemergence, Rate 125 g/ha, scale 0 to 100, 0 no effect, 100 complete control

Structure (SMILES): COc1ccn(C2CCN(c3cccc(C(F)(F)F)c3)C2=O)n1 (stereo not drawn) [Compound 60]
- Plant response rating, Blackgrass [1, 29]: 0
- Plant response rating, Blackgrass [1, 30]: 0
- Plant response rating, Foxtail, Giant [2, 29]: 0
- Plant response rating, Foxtail, Giant [2, 30]: 0
- Plant response rating, Corn [3, 29]: 0
- Plant response rating, Corn [3, 30]: 0
- Plant response rating, Wild Oat [4, 29]: 0
- Plant response rating, Wild Oat [4, 30]: 0
- Plant response rating, Velvetleaf [5, 29]: 0
- Plant response rating, Velvetleaf [5, 30]: 0
- Plant response rating, Crabgrass [6, 29]: 0
- Plant response rating, Crabgrass [6, 30]: 0
- Plant response rating, Barnyardgrass [7, 29]: 0
- Plant response rating, Barnyardgrass [7, 30]: 0
- Plant response rating, Surinam grass [8, 29]: 0
- Plant response rating, Surinam grass [8, 30]: 0
- Plant response rating, Wheat [9, 29]: 0
- Plant response rating, Wheat [9, 30]: 0
- Plant response rating, Lambsquarters [10, 29]: 0
- Plant response rating, Lambsquarters [10, 30]: 0
- Plant response rating, Morningglory [11, 29]: 0
- Plant response rating, Morningglory [11, 30]: 0
- Plant response rating, Pigweed [12, 29]: 0
- Plant response rating, Pigweed [12, 30]: 0
- Plant response rating, Cocklebur [13, 29]: 0
- Plant response rating, Cocklebur [13, 30]: 0
- Plant response rating, Ducksalad [14]: 50
- Plant response rating, Barnyardgrass [15]: 0
- Plant response rating, Rice [16]: 0
- Plant response rating, Flatsedge [17]: 0
- Plant response rating, Foxtail, Giant [18, 31]: 0
- Plant response rating, Foxtail, Giant [18, 32]: 0
- Plant response rating, Corn [19, 31]: 0
- Plant response rating, Corn [19, 32]: 0
- Plant response rating, Velvetleaf [20, 31]: 0
- Plant response rating, Velvetleaf [20, 32]: 0
- Plant response rating, Crabgrass [21, 31]: 0
- Plant response rating, Barnyardgrass [22, 31]: 0
- Plant response rating, Barnyardgrass [22, 32]: 0
- Plant response rating, Surinam grass [23, 31]: 0
- Plant response rating, Surinam grass [23, 32]: 0
- Plant response rating, Rice [24, 31]: 0
- Plant response rating, Rice [24, 32]: 0
- Plant response rating, Lambsquarters [25, 31]: 0
- Plant response rating, Lambsquarters [25, 32]: 0
- Plant response rating, Morningglory [26, 31]: 0
- Plant response rating, Morningglory [26, 32]: 0
- Plant response rating, Pigweed [27, 31]: 100
- Plant response rating, Pigweed [27, 32]: 0
- Plant response rating, Cocklebur [28, 31]: 0
- Plant response rating, Cocklebur [28, 32]: 0

Structure (SMILES): CC(C)(C)c1ccn(C2CCN(c3cccc(OC(=O)C(F)(F)F)c3)C2=O)n1 (stereo not drawn) [Compound 94]
- Plant response rating, Blackgrass [1, 29]: 0
- Plant response rating, Blackgrass [1, 30]: 0
- Plant response rating, Foxtail, Giant [2, 29]: 0
- Plant response rating, Foxtail, Giant [2, 30]: 0
- Plant response rating, Corn [3, 29]: 0
- Plant response rating, Corn [3, 30]: 0
- Plant response rating, Wild Oat [4, 30]: 0
- Plant response rating, Velvetleaf [5, 30]: 0
- Plant response rating, Crabgrass [6, 29]: 0
- Plant response rating, Crabgrass [6, 30]: 0
- Plant response rating, Barnyardgrass [7, 29]: 0
- Plant response rating, Barnyardgrass [7, 30]: 0
- Plant response rating, Surinam grass [8, 29]: 0
- Plant response rating, Surinam grass [8, 30]: 0
- Plant response rating, Wheat [9, 30]: 0
- Plant response rating, Lambsquarters [10, 30]: 20
- Plant response rating, Morningglory [11, 30]: 0
- Plant response rating, Pigweed [12, 30]: 10
- Plant response rating, Cocklebur [13, 29]: 0
- Plant response rating, Cocklebur [13, 30]: 0
- Plant response rating, Ducksalad [14]: 0
- Plant response rating, Barnyardgrass [15]: 0
- Plant response rating, Rice [16]: 0
- Plant response rating, Flatsedge [17]: 0
- Plant response rating, Foxtail, Giant [18, 31]: 0
- Plant response rating, Foxtail, Giant [18, 32]: 0
- Plant response rating, Corn [19, 31]: 0
- Plant response rating, Corn [19, 32]: 0
- Plant response rating, Velvetleaf [20, 31]: 70
- Plant response rating, Velvetleaf [20, 32]: 0
- Plant response rating, Crabgrass [21, 31]: 30
- Plant response rating, Crabgrass [21, 32]: 0
- Plant response rating, Barnyardgrass [22, 31]: 0
- Plant response rating, Barnyardgrass [22, 32]: 0
- Plant response rating, Surinam grass [23, 31]: 0
- Plant response rating, Surinam grass [23, 32]: 0
- Plant response rating, Rice [24, 31]: 20
- Plant response rating, Rice [24, 32]: 0
- Plant response rating, Lambsquarters [25, 31]: 100
- Plant response rating, Lambsquarters [25, 32]: 0
- Plant response rating, Morningglory [26, 31]: 0
- Plant response rating, Morningglory [26, 32]: 0
- Plant response rating, Pigweed [27, 31]: 0
- Plant response rating, Pigweed [27, 32]: 0
- Plant response rating, Cocklebur [28, 31]: 0
- Plant response rating, Cocklebur [28, 32]: 0

Structure (SMILES): Cc1ccc(N2CCC(n3ccc(C(C)(C)C)n3)C2=O)cc1Cl (stereo not drawn) [Compound 41]
- Plant response rating, Blackgrass [1, 29]: 0
- Plant response rating, Blackgrass [1, 30]: 0
- Plant response rating, Foxtail, Giant [2, 29]: 0
- Plant response rating, Foxtail, Giant [2, 30]: 0
- Plant response rating, Corn [3, 30]: 0
- Plant response rating, Wild Oat [4, 29]: 0
- Plant response rating, Wild Oat [4, 30]: 0
- Plant response rating, Velvetleaf [5, 29]: 0
- Plant response rating, Velvetleaf [5, 30]: 0
- Plant response rating, Crabgrass [6, 29]: 0
- Plant response rating, Crabgrass [6, 30]: 40
- Plant response rating, Barnyardgrass [7, 29]: 0
- Plant response rating, Barnyardgrass [7, 30]: 70
- Plant response rating, Surinam grass [8, 29]: 0
- Plant response rating, Surinam grass [8, 30]: 0
- Plant response rating, Wheat [9, 29]: 0
- Plant response rating, Wheat [9, 30]: 0
- Plant response rating, Lambsquarters [10, 29]: 0
- Plant response rating, Lambsquarters [10, 30]: 60
- Plant response rating, Morningglory [11, 29]: 0
- Plant response rating, Morningglory [11, 30]: 20
- Plant response rating, Pigweed [12, 29]: 0
- Plant response rating, Pigweed [12, 30]: 80
- Plant response rating, Cocklebur [13, 29]: 0
- Plant response rating, Cocklebur [13, 30]: 0
- Plant response rating, Ducksalad [14]: 70
- Plant response rating, Barnyardgrass [15]: 70
- Plant response rating, Rice [16]: 40
- Plant response rating, Flatsedge [17]: 100
- Plant response rating, Foxtail, Giant [18, 31]: 60
- Plant response rating, Foxtail, Giant [18, 33]: 0
- Plant response rating, Corn [19, 31]: 0
- Plant response rating, Corn [19, 33]: 0
- Plant response rating, Velvetleaf [20, 31]: 0
- Plant response rating, Crabgrass [21, 31]: 0
- Plant response rating, Crabgrass [21, 33]: 0
- Plant response rating, Barnyardgrass [22, 31]: 100
- Plant response rating, Barnyardgrass [22, 33]: 40
- Plant response rating, Surinam grass [23, 31]: 0
- Plant response rating, Surinam grass [23, 33]: 0
- Plant response rating, Rice [24, 31]: 0
- Plant response rating, Lambsquarters [25, 31]: 100
- Plant response rating, Lambsquarters [25, 33]: 100
- Plant response rating, Morningglory [26, 31]: 0
- Plant response rating, Pigweed [27, 31]: 100
- Plant response rating, Cocklebur [28, 31]: 0
- Plant response rating, Cocklebur [28, 33]: 0
